Assays:
[1] = tested on: 3D spheroid-cultured nerve cells (human iPSC-derived nerve cells and human-derived primary cultured astrocytes); experiment: Calcium assay in 3D spheroid-cultured nerve cells (number of calcium spikes); assay type: cell-based; settings: for relative value (log 2) of a change in number of the calcium spikes (DMSO = 0) / relative value of the number of the calcium spikes (DMSO set to 100%): cultured 5 weeks; for relative value (log 2) of a change in number of the calcium spikes (DMSO = 0): Experimental Examples 4-9, FIG. 4-9
Excerpt: Human iPSC-derived nerve cells (Excitatory Neurons, Elixirgen Scientific, Inc.) and human-derived primary cultured astrocytes (ScienCell Research Laboratories, Inc.) were mixed so that the number of cells per well was 8,000 for the nerve cells and 8,000 for the astrocytes, and seeded on a plate for producing a spheroid. As the culture medium, Neurobasal Plus (Thermo Fisher Scientific, Inc.) to which B-27 Plus Supplement (Thermo Fisher Scientific, Inc.), Glutamax (Thermo Fisher Scientific, Inc.), 200 μM ascorbic acid (FUJIFILM Wako Pure Chemical Corporation), and a 10% Neuron Culture medium (FUJIFILM Wako Pure Chemical Corporation) had been added was used. Subsequently, the cells were cultured for 6 weeks and a calcium assay which will be described later was performed.
In the case of the 3D spheroid-cultured nerve cells, each spheroid was transferred to a plate for measurement, a calcium-sensitive fluorescent dye (Cal-520AM, (AAT Bioquest, Inc.)), Pluronic F-127 (AAT Bioquest, Inc.), and the drug were added to the culture medium, and the fluorescence was measured at intervals of 0.5 seconds for 20 minutes using a fluorescence plate reader to measure the calcium spikes.
By setting the proportion of the change in number of the calcium spikes in a case where dimethyl sulfoxide (DMSO) used as a solvent for the drug was added to 0%, in a case where the number of the calcium spikes increased due to the addition of the drug, the value is shown to be positive, and in a case where the number of the calcium spikes decreased due to the addition of the drug, the value is shown to be negative.
A calcium assay was performed in the presence of a drug, using spheroids with different numbers of cells, and the drug responsiveness of the nerve cells was examined. Human iPSC-derived nerve cells (Excitatory Neurons, Elixirgen Scientific, Inc.) and human-derived primary cultured astrocytes (ScienCell Research Laboratories, Inc.) were mixed so that the number of cells per well was 8,000 for the nerve cells and 8,000 for the astrocytes, 4,000 for the nerve cells and 4,000 for the astrocytes, or 2,000 for the nerve cells and 2,000 for the astrocytes, and seeded on a plate for producing a spheroid. As the culture medium, Neurobasal Plus (Thermo Fisher Scientific, Inc.) to which B-27 Plus Supplement (Thermo Fisher Scientific, Inc.), Glutamax (Thermo Fisher Scientific, Inc.), 200 μM ascorbic acid (FUJIFILM Wako Pure Chemical Corporation), and a 10% Neuron Culture medium (FUJIFILM Wako Pure Chemical Corporation) had been added was used. Subsequently, the cells were cultured for 5 weeks, and a calcium assay was performed in the same manner as in Experimental Example 1. Chlorpromazine was used as the drug.
The values in the graph indicate the mean value±the standard deviation. The horizontal axis of the graph indicates the concentration of chlorpromazine in the culture medium, and the vertical axis of the graph indicates a relative value of the number of the calcium spikes in a case where dimethyl sulfoxide (DMSO) used as a solvent for the drug was added, with the number of the calcium spikes set to 100%. […] 0% indicates a state in which the calcium spikes completely disappear.
A calcium assay was performed in the same manner as in Experimental Example 2, except that the drug was changed to GABA and the number of cells constituting the spheroid was changed to 16,000 or 4,000, and the drug responsiveness of the nerve cells was examined.

[2] = tested on: 2D-cultured nerve cells (human iPSC-derived nerve cells and human-derived primary cultured astrocytes); experiment: Calcium assay in 2D-cultured nerve cells (number of calcium spikes); assay type: cell-based; settings: cultured 6 weeks, Experimental Example 1, FIG. 1
Experimental: Human iPSC-derived nerve cells (Excitatory Neurons, Elixirgen Scientific, Inc.) and human-derived primary cultured astrocytes (ScienCell Research Laboratories, Inc.) were seeded in a 384-well plate so that the number of cells per well was 10,000 for the nerve cells and 2,500 for the astrocytes. As the culture medium, Neurobasal Plus (Thermo Fisher Scientific, Inc.) to which B-27 Plus Supplement (Thermo Fisher Scientific, Inc.), Glutamax (Thermo Fisher Scientific, Inc.), 200 µM ascorbic acid (FUJIFILM Wako Pure Chemical Corporation), and a 10% Neuron Culture medium (FUJIFILM Wako Pure Chemical Corporation) had been added was used. Subsequently, the cells were cultured for 6 weeks and a calcium assay which will be described later was performed.
A calcium assay was performed in the presence of a drug to examine the drug responsiveness of the 2D-cultured nerve cells and the 3D spheroid-cultured nerve cells. Chlorpromazine was used as the drug.
In the case of the 2D-cultured nerve cells, a calcium-sensitive fluorescent dye (Cal-520AM, AAT Bioquest, Inc.) and a drug were added to the culture medium, and the fluorescence was measured at intervals of 0.5 seconds for 20 minutes using a fluorescence plate reader to measure the calcium spikes.
FIG. 1 is a graph showing the measurement results. The values in the graph indicate the mean value±the standard deviation. […]

[3] = spheroid of 4,000 cells, compared with 16,000 cells
[4] = spheroid of 4,000 cells, Experimental Examples 2-3, FIG. 2-3, chlorpromazine at 1 μM and 3 μM
[5] = spheroid of 8,000 cells, Experimental Examples 2-3, FIG. 2-3, chlorpromazine at 1 μM and 3 μM
[6] = spheroid of 16,000 cells, Experimental Examples 2-3, FIG. 2-3, chlorpromazine at 1 μM and 3 μM

Compound: NCCc1ccc(O)c(O)c1 [dopamine]
- relative value (log 2) of a change in number of the calcium spikes (DMSO = 0) [1, 3]: the action was exhibited at a lower concentration and a stronger action was exhibited at 4,000 cells in a concentration-dependent manner

Compound: N#Cc1cc2c(cc1[N+](=O)[O-])=NC(=O)C(=O)N=2 [CNQX, 6-cyano-7-nitroquinoxaline-2,3-dione]
- relative value (log 2) of a change in number of the calcium spikes (DMSO = 0) [1, 3]: the action was exhibited at a lower concentration and a stronger action was exhibited at 4,000 cells in a concentration-dependent manner

Compound: NC(=O)N1c2ccccc2C=Cc2ccccc21 [carbamazepine]
- relative value (log 2) of a change in number of the calcium spikes (DMSO = 0) [1, 3]: the action was exhibited at a lower concentration and a stronger action was exhibited at 4,000 cells in a concentration-dependent manner

Compound: CN(C)CCCN1c2ccccc2Sc2ccc(Cl)cc21 [chlorpromazine, Chlorpromazine]
- change in number of the calcium spikes (vs DMSO) ([1]; 3D spheroid, 8,000 nerve cells + 8,000 astrocytes, cultured 6 weeks, Experimental Example 1, FIG. 1): no change in number of the calcium spikes was observed at any drug concentration
- relative value (log 2) of a change in number of the calcium spikes (DMSO = 0) [1, 3]: the action was exhibited at a lower concentration and a stronger action was exhibited at 4,000 cells in a concentration-dependent manner
- relative value of the number of the calcium spikes (DMSO set to 100%) [1, 4]: showed a concentration-dependent response
- relative value of the number of the calcium spikes (DMSO set to 100%) [1, 5]: did not show a concentration-dependent response
- relative value of the number of the calcium spikes (DMSO set to 100%) [1, 6]: did not show a concentration-dependent response
- number of the calcium spikes (proportion of change vs DMSO) ([2]; 2D culture, 10,000 nerve cells and 2,500 astrocytes per well): the number of the calcium spikes decreased in a drug concentration-dependent manner
- concentration at which the calcium spikes disappeared ([2]; 2D culture): 3 µM

Compound: NCCCC(=O)O [GABA, γ-aminobutyric acid]
- relative value (log 2) of a change in number of the calcium spikes (DMSO = 0) [1, 3]: the action was exhibited at a lower concentration and a stronger action was exhibited at 4,000 cells in a concentration-dependent manner

Compound: CN1CCc2cc3c(cc2[C@H]1[C@@H]1OC(=O)c2c1ccc1c2OCO1)OCO3 [bicuculine]
- relative value (log 2) of a change in number of the calcium spikes (DMSO = 0) [1, 3]: drug responsiveness was exhibited in a concentration-dependent manner
- relative value of the number of the calcium spikes (DMSO set to 100%) [1, 4]: an increase in the number of the calcium spikes was observed in a concentration-dependent manner
- relative value of the number of the calcium spikes (DMSO set to 100%) [1, 5]: a significant response was not observed
- relative value of the number of the calcium spikes (DMSO set to 100%) ([1]; spheroid of 8,000 cells, drug at 30 μM, Experimental Example 3, FIG. 3): a tendency of an increase in the number of the calcium spikes was observed
- relative value of the number of the calcium spikes (DMSO set to 100%) [1, 6]: an increase in the number of the calcium spikes was not observed at any concentration
- relative value (log 2) of a change in number of the calcium spikes (DMSO = 0) ([1]; spheroid of 16,000 cells): no drug response was observed

— patent US20250283873A1, “NERVOUS SYSTEM CELL-CONTAINING SPHEROID, METHOD FOR PRODUCING NERVOUS SYSTEM CELL-CONTAINING SPHEROID, AND METHOD FOR EVALUATING TEST SUBSTANCE” (Ricoh Company, Ltd., priority 2024, published 2025)
